Data reported in patent publication US8691855B2, “Compounds, isomer thereof, or pharmaceutically acceptable salts thereof as vanilloid receptor antagonist and pharmaceutical compositions containing the same” (Amorepacific Corporation, priority 2008, dated 2014).

Biological target: T1, vanilloid receptor (Rattus norvegicus, UniProt O35433)
T1 construct: DRG nerve cells from the primary culture of 2 days were equilibrated; endogenous in cells; host or cells: primary culture of dorsal root ganglion neurons from neonatal SD rats
T1 sequence (O35433 whole entry): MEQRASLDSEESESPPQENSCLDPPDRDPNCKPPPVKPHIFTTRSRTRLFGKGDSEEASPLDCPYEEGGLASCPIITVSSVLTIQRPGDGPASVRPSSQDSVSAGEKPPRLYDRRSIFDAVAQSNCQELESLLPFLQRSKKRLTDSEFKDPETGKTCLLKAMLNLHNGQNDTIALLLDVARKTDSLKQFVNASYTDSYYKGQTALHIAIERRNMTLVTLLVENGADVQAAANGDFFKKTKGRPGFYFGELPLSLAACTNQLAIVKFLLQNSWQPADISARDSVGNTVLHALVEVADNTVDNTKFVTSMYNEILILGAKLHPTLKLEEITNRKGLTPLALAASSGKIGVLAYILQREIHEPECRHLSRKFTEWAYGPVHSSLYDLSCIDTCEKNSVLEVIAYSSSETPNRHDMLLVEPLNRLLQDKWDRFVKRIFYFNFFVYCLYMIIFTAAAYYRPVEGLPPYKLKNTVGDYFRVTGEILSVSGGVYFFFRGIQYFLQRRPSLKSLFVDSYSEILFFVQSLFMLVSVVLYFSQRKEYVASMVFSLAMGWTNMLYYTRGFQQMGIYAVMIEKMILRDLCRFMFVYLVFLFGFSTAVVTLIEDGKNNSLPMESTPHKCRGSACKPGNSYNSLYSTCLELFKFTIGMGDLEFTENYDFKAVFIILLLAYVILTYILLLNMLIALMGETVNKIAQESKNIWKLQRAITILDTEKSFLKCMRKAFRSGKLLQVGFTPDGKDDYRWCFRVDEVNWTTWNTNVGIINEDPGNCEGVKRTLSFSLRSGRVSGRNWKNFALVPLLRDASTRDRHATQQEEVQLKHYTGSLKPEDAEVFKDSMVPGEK
Experiment: 45Ca influx test (antagonist calcium uptake test) in rat DRG neurons stimulated with capsaicin
Format: cell-based
Conditions: neonatal SD rat DRG neurons, capsaicin 0.5 μM; for IC50: 45Ca
Outline: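 Neonatal SD rat DRG neurons, cultured 2 days with NGF 200 ng/ml, exposed to test compound plus 0.5 μM capsaicin and 45Ca (10 μCi/ml) in HEPES-buffered Ca/Mg-free HBSS, pH 7.4, 10 min at room temperature. Influx counted by scintillation; activity as percent inhibition of the 0.5 μM capsaicin maximal response.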

| IC50 | SMILES | other results |
| --- | --- | --- |
| 0.6 µM | C[C@@H](NC(=O)c1coc(Oc2cccc(Br)c2)n1)c1cc(F)c(NS(C)(=O)=O)c(F)c1 [Example 15, 2-(3-Bromo-phenoxy)-oxazole-4-carboxylic acid [1-(3,5-difluoro-4-methanesulfonylamino-phenyl)-ethyl]-amide] |  |
| 1.4 µM | COc1cc(-c2nc(C(=O)N[C@H](C)c3cc(F)c(NS(C)(=O)=O)c(F)c3)co2)cc(C(F)(F)F)c1 [Example 97, 2-(3-Methoxy-5-trifluoromethyl-phenyl)-oxazole-4-carboxylic acid [1-(3,5-difluoro-4-methanesulfonylamino-phenyl)-ethyl]-amide] |  |
| 0.62 µM | Cc1ccc(C(C)C)cc1Oc1nc(C(=O)N[C@H](C)c2cc(F)c(NS(C)(=O)=O)c(F)c2)co1 [Example 47, 2-(5-Isopropyl-2-methyl-phenoxy)-oxazole-4-carboxylic acid [1-(3,5-difluoro-4-methanesulfonylamino-phenyl)-ethyl]-amide] |  |
| > 10 µM | C[C@@H](NC(=O)c1coc(Oc2cccc(Cl)n2)n1)c1cc(F)c(NS(C)(=O)=O)c(F)c1 [Example 26] |  |
| > 10 µM | CC(=O)c1cccc(-c2nc(C(=O)N[C@H](C)c3cc(F)c(NS(C)(=O)=O)c(F)c3)co2)c1 [Example 76, 2-(3-Acetyl-phenyl)-oxazole-4-carboxylic acid [1-(3,5-difluoro-4-methanesulfonylamino-phenyl)-ethyl]-amide] |  |
| 0.72 µM | C[C@@H](NC(=O)c1coc(Oc2cc(C(F)(F)F)ccc2Cl)n1)c1cc(F)c(NS(C)(=O)=O)c(F)c1 [Example 53, 2-(2-Chloro-5-trifluoromethyl-phenoxy)-oxazole-4-carboxylic acid [1-(3,5-difluoro-4-methanesulfonylamino-phenyl)-ethyl]-amide] |  |
| 0.99 µM | C[C@@H](NC(=O)c1coc(-c2cccc(C(F)(F)F)c2F)n1)c1cc(F)c(NS(C)(=O)=O)c(F)c1 (stereo in doubt) [Example 79, 2-(2-Fluoro-3-trifluoromethyl-phenyl)-oxazole-4-carboxylic acid [1-(3,5-difluoro-4-methanesulfonylamino-phenyl)-ethyl]-amide] |  |
| > 10 µM | C[C@@H](NC(=O)c1coc(Oc2cccc(C#N)c2)n1)c1cc(F)c(NS(C)(=O)=O)c(F)c1 [Example 17, 2-(3-Cyano-phenoxy)-oxazole-4-carboxylic acid [1-(3,5-difluoro-4-methanesulfonylamino-phenyl)-ethyl]-amide] |  |
| 3 µM | C[C@@H](NC(=O)c1csc(-c2cc(C3CC3)cc(C3CC3)c2)n1)c1cc(F)c(NS(C)(=O)=O)c(F)c1 (stereo in doubt) [Example 107, 2-(3,5-Dicyclopropyl-phenyl)-thiazole-4-carboxylic acid [1-(3,5-difluoro-4-methanesulfonylamino-phenyl)-ethyl]-amide] |  |
| 0.4 µM | CCC1CCc2c(Oc3nc(C(=O)N[C@H](C)c4cc(F)c(NS(C)(=O)=O)c(F)c4)co3)cccc21 (stereo partly drawn) [Example 38, 2-(1-Ethyl-indan-4-yloxy)-oxazole-4-carboxylic acid [1-(3,5-difluoro-4-methanesulfonylamino-phenyl)-ethyl]-amide] |  |
| 0.56 µM | C[C@@H](NC(=O)c1coc(Oc2cccc(C3CCC3)c2)n1)c1cc(F)c(NS(C)(=O)=O)c(F)c1 [Example 56, 2-(3-Cyclobutyl-phenoxy)-oxazole-4-carboxylic acid [1-(3,5-difluoro-4-methanesulfonylamino-phenyl)-ethyl]-amide] |  |
| 0.24 µM | C[C@@H](NC(=O)c1ccc(-c2cccc(C(F)(F)F)c2)o1)c1ccc(NS(C)(=O)=O)c(F)c1 [Example 111, 5-(3-Trifluoromethyl-phenyl)-furan-2-carboxylic acid [1-(3-fluoro-4-methanesulfonylamino-phenyl)-ethyl]-amide] |  |
| 0.41 µM | C=C1CCCc2c(Oc3nc(C(=O)N[C@H](C)c4cc(F)c(NS(C)(=O)=O)c(F)c4)co3)cccc21 [Example 37, 2-(5-Methylene-5,6,7,8-tetrahydro-naphthalen-1-yloxy)-oxazole-4-carboxylic acid [1-(3,5-difluoro-4-methanesulfonylamino-phenyl)-ethyl]-amide] |  |
| 0.19 µM | CCCc1ccc(C(F)(F)F)cc1Oc1nc(C(=O)N[C@H](C)c2cc(F)c(NS(C)(=O)=O)c(F)c2)co1 [Example 41, 2-(2-Propyl-5-trifluoromethyl-phenoxy)-oxazole-4-carboxylic acid [1-(3,5-difluoro-4-methanesulfonylamino-phenyl)-ethyl]-amide] |  |
|  | Cc1cc(CNC(=O)c2ccc(-c3cccc(C(F)(F)F)c3)o2)cc(F)c1NS(C)(=O)=O [Example 103, 5-(3-Trifluoromethyl-phenyl)-furan-2-carboxylic acid 3-fluoro-4-methanesulfonylamino-5-methyl-benzylamide] | inhibition at 3 µM (DRG neuron, @3 μM, read-out: Antagonist Calcium Uptake Test, percent inhibition of capsaicin response): 84% |
| 2 µM | COc1ccc(C(C)C)cc1-c1nc(C(=O)N[C@H](C)c2cc(F)c(NS(C)(=O)=O)c(F)c2)co1 [Example 77, 2-(5-Isopropyl-2-methoxy-phenyl)-oxazole-4-carboxylic acid [1-(3,5-difluoro-4-methanesulfonylamino-phenyl)-ethyl]-amide] |  |
| 4.9 µM | CCCc1cc(C(F)(F)F)ccc1Oc1nc(C(=O)N[C@H](C)c2cc(F)c(NS(C)(=O)=O)c(F)c2)co1 [Example 33, 2-(2-Propyl-4-trifluoromethyl-phenoxy)-oxazole-4-carboxylic acid [1-(3,5-difluoro-4-methanesulfonylamino-phenyl)-ethyl]-amide] |  |
| 1.3 µM | C[C@@H](NC(=O)c1coc(Oc2cc(C(F)(F)F)cc(C(F)(F)F)c2)n1)c1cc(F)c(NS(C)(=O)=O)c(F)c1 [Example 36, 2-(3,5-Bis-trifluoromethyl-phenoxy)-oxazole-4-carboxylic acid [1-(3,5-difluoro-4-methanesulfonylamino-phenyl)-ethyl]-amide] |  |
|  | C#Cc1cc(CNC(=O)c2ccc(-c3cccc(C(F)(F)F)c3)o2)cc(F)c1NS(C)(=O)=O [Example 104, 5-(3-Trifluoromethyl-phenyl)-furan-2-carboxylic acid 3-ethynyl-5-fluoro-4-methanesulfonylamino-benzylamide] | inhibition at 1 µM (DRG neuron, @1 μM, read-out: Antagonist Calcium Uptake Test, percent inhibition of capsaicin response): 100% |
| 0.77 µM | C[C@@H](NC(=O)c1coc(Oc2cccc(Cl)c2)n1)c1cc(F)c(NS(C)(=O)=O)c(F)c1 [Example 16, 2-(3-Chloro-phenoxy)-oxazole-4-carboxylic acid [1-(3,5-difluoro-4-methanesulfonylamino-phenyl)-ethyl]-amide] |  |
| 0.33 µM | C[C@@H](NC(=O)c1coc(Oc2cccc3c2CCC3C(F)(F)F)n1)c1cc(F)c(NS(C)(=O)=O)c(F)c1 (stereo in doubt) [Example 57, 2-(1-Trifluoromethyl-indan-4-yloxy)-oxazole-4-carboxylic acid [1-(3,5-difluoro-4-methanesulfonylamino-phenyl)-ethyl]-amide] |  |
| 0.52 µM | C[C@@H](NC(=O)c1ccc(-c2cc(C3CC3)cc(C3CC3)c2)o1)c1cc(F)c(NS(C)(=O)=O)c(F)c1 [Example 108, 5-(3,5-Dicyclopropyl-phenyl)-furan-2-carboxylic acid [1-(3,5-difluoro-4-methanesulfonylamino-phenyl)-ethyl]-amide] |  |
| 1.5 µM | CS(=O)(=O)Nc1c(F)cc(CNC(=O)c2csc(Oc3ccc(C(F)(F)F)cc3)n2)cc1F [Example 14, 2-(4-Trifluoromethyl-phenoxy)-thiazole-4-carboxylic acid 3,5-difluoro-4-methanesulfonylamino-benzylamide] |  |
| 0.28 µM | CCc1cccc(Oc2nc(C(=O)N[C@H](C)c3cc(F)c(NS(C)(=O)=O)c(F)c3)co2)c1 [Example 29, 2-(3-Ethyl-phenoxy)-oxazole-4-carboxylic acid [1-(3,5-difluoro-4-methanesulfonylamino-phenyl)-ethyl]-amide] |  |
| 1.9 µM | C[C@@H](NC(=O)c1coc(Oc2ccc3c(c2)CCC3)n1)c1cc(F)c(NS(C)(=O)=O)c(F)c1 [Example 22, 2-(Indan-5-yloxy)-oxazole-4-carboxylic acid [1-(3,5-difluoro-4-methanesulfonylamino-phenyl)-ethyl]-amide] |  |
| 0.53 µM | CS(=O)(=O)Nc1ccc(CNC(=O)c2ccc(-c3ccc(F)c(C(F)(F)F)c3)o2)cc1F [Example 125, 5-(4-Fluoro-3-trifluoromethyl-phenyl)-furan-2-carboxylic acid 3-fluoro-4-methanesulfonylamino-benzylamide] |  |

| SMILES | IC50 | other results |
| --- | --- | --- |
| CCCCOc1ccccc1-c1nc(C(=O)N[C@H](C)c2cc(F)c(NS(C)(=O)=O)c(F)c2)co1 [Example 66, 2-(2-Butoxy-phenyl)-oxazole-4-carboxylic acid [1-(3,5-difluoro-4-methanesulfonylamino-phenyl)-ethyl]-amide] | 0.75 µM |  |
